Laboratory results as given in ChEMBL document CHEMBL1201862, “PubChem BioAssay data set” (2004).
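Compound exposure: 48 hours, 5 concentrations, 96-well plates. GI50: concentration for 50% inhibition of growth.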 Calls of active or inactive are those of the source. No stated cut-off is given here; in the data, active = GI50 up to about 1.1 µM and inactive = higher.

Experiments:
Assay in all cases: NCI tumour cell line growth inhibition, 48 h
SF-268 = tested on: SF-268
DLD-1 = tested on: DLD-1
RXF 393 = tested on: RXF 393
SK-MEL-5 = tested on: SK-MEL-5
SNB-19 = tested on: SNB-19
OVCAR-5 = tested on: OVCAR-5
OVCAR-3 = tested on: OVCAR-3
CCRF-CEM = tested on: CCRF-CEM
OVCAR-4 = tested on: OVCAR-4
NCI-H460 = tested on: NCI-H460
SR = tested on: SR
HOP-18 = tested on: HOP-18
UACC-257 = tested on: UACC-257
HL-60 = tested on: HL-60
NCI-H23 = tested on: NCI-H23
ACHN = tested on: ACHN
HT-29 = tested on: HT-29
Malme-3M = tested on: Malme-3M
SNB-75 = tested on: SNB-75
CAKI-1 = tested on: CAKI-1
SK-OV-3 = tested on: SK-OV-3
OVCAR-8 = tested on: OVCAR-8
COLO 205 = tested on: COLO 205
IGROV-1 = tested on: IGROV-1
SF-539 = tested on: SF-539
MOLT-4 = tested on: MOLT-4
KM12 = tested on: KM12
UO-31 = tested on: UO-31
RPMI-8226 = tested on: RPMI-8226
U-251 = tested on: U-251
A549 = tested on: A549
DMS-273 = tested on: DMS-273
786-0 = tested on: 786-0
UACC-62 = tested on: UACC-62
KM-20L2 = tested on: KM-20L2
HCT-15 = tested on: HCT-15
TK-10 = tested on: TK-10
SK-MEL-28 = tested on: SK-MEL-28
SF-295 = tested on: SF-295
SNB-78 = tested on: SNB-78
NCI-H226 = tested on: NCI-H226
HCT-116 = tested on: HCT-116
HOP-62 = tested on: HOP-62
SK-MEL-2 = tested on: SK-MEL-2
A498 = tested on: A498
HCC 2998 = tested on: HCC 2998
NCI-H522 = tested on: NCI-H522
HOP-92 = tested on: HOP-92
M14 = tested on: M14
LOX IMVI = tested on: LOX IMVI
LXFL 529 = tested on: LXFL 529
M19-MEL = tested on: M19-MEL
XF498 = tested on: XF498
K562 = tested on: K562
SN12C = tested on: SN12C
EKVX = tested on: EKVX
SW-620 = tested on: SW-620
DMS-114 = tested on: DMS-114

CCOC(=O)C1=C(OC(OCC)C([Se]c2ccccc2)C(C)C)CCC1 (stereo not given)
GI50 (SF-268): 4.73 µM (inactive)
GI50 (DLD-1): 14.7 µM (inactive)
GI50 (RXF 393): 9.46 µM (inactive)
GI50 (SK-MEL-5): 13 µM (inactive)
GI50 (SNB-19): 27.2 µM (inactive)
GI50 (OVCAR-5): 22.3 µM (inactive)
GI50 (OVCAR-3): 15.1 µM (inactive)
GI50 (CCRF-CEM): 3.44 µM (inactive)
GI50 (OVCAR-4): 16.1 µM (inactive)
GI50 (NCI-H460): 16.9 µM (inactive)
GI50 (SR): 3.2 µM (inactive)
GI50 (HOP-18): 16.2 µM (inactive)
GI50 (UACC-257): 23.2 µM (inactive)
GI50 (HL-60): 3.24 µM (inactive)
GI50 (NCI-H23): 8.28 µM (inactive)
GI50 (ACHN): 23.4 µM (inactive)
GI50 (HT-29): 19.1 µM (inactive)
GI50 (Malme-3M): 26.4 µM (inactive)
GI50 (SNB-75): 23 µM (inactive)
GI50 (CAKI-1): 43.5 µM (inactive)
GI50 (SK-OV-3): 81.7 µM (inactive)
GI50 (OVCAR-8): 14.1 µM (inactive)
GI50 (COLO 205): 14.7 µM (inactive)
GI50 (IGROV-1): 18.3 µM (inactive)
GI50 (SF-539): 12.3 µM (inactive)
GI50 (MOLT-4): 14.7 µM (inactive)
GI50 (KM12): 41.1 µM (inactive)
GI50 (UO-31): 24.4 µM (inactive)
GI50 (RPMI-8226): 10.1 µM (inactive)
GI50 (U-251): 4.29 µM (inactive)
GI50 (A549): 28.8 µM (inactive)
GI50 (DMS-273): 5.52 µM (inactive)
GI50 (786-0): 6.82 µM (inactive)
GI50 (UACC-62): 14.2 µM (inactive)
GI50 (KM-20L2): 28.8 µM (inactive)
GI50 (HCT-15): 15.2 µM
GI50 (TK-10): 47 µM (inactive)
GI50 (SK-MEL-28): 16.4 µM (inactive)
GI50 (SF-295): 13.4 µM (inactive)
GI50 (SNB-78): 12.8 µM (inactive)
GI50 (NCI-H226): 13.7 µM (inactive)
GI50 (HCT-116): 12.5 µM (inactive)
GI50 (HOP-62): 68.7 µM (inactive)
GI50 (SK-MEL-2): 15.1 µM (inactive)
GI50 (A498): 26.5 µM (inactive)
GI50 (HCC 2998): 36.8 µM (inactive)
GI50 (NCI-H522): 7.1 µM (inactive)
GI50 (HOP-92): 27.5 µM (inactive)
GI50 (M14): 15.8 µM (inactive)
GI50 (LOX IMVI): 2.31 µM (inactive)
GI50 (LXFL 529): 12.2 µM (inactive)
GI50 (M19-MEL): 15.3 µM (inactive)
GI50 (XF498): 11.6 µM (inactive)
GI50 (K562): 37 µM (inactive)
GI50 (SN12C): 10.4 µM (inactive)
GI50 (EKVX): 18.8 µM (inactive)

COC(=O)/C(C#N)=C1\CCC(OC)N1 (stereo not given)
GI50 (SF-268): > 100 µM (inactive)
GI50 (SW-620): > 100 µM (inactive)
GI50 (DMS-114): > 100 µM (inactive)
GI50 (DLD-1): > 100 µM (inactive)
GI50 (RXF 393): 47.2 µM (inactive)
GI50 (SK-MEL-5): > 100 µM (inactive)
GI50 (SNB-19): > 100 µM (inactive)
GI50 (OVCAR-5): > 100 µM (inactive)
GI50 (OVCAR-3): > 100 µM (inactive)
GI50 (CCRF-CEM): > 100 µM (inactive)
GI50 (OVCAR-4): > 100 µM (inactive)
GI50 (NCI-H460): > 100 µM (inactive)
GI50 (HOP-18): > 100 µM (inactive)
GI50 (UACC-257): > 100 µM (inactive)
GI50 (HL-60): > 100 µM (inactive)
GI50 (NCI-H23): > 100 µM (inactive)
GI50 (ACHN): > 100 µM (inactive)
GI50 (HT-29): > 100 µM (inactive)
GI50 (Malme-3M): > 100 µM (inactive)
GI50 (SNB-75): > 100 µM (inactive)
GI50 (CAKI-1): > 100 µM (inactive)
GI50 (SK-OV-3): > 100 µM (inactive)
GI50 (OVCAR-8): > 100 µM (inactive)
GI50 (COLO 205): > 100 µM (inactive)
GI50 (IGROV-1): > 100 µM (inactive)
GI50 (SF-539): > 100 µM (inactive)
GI50 (MOLT-4): > 100 µM (inactive)
GI50 (KM12): > 100 µM (inactive)
GI50 (UO-31): > 100 µM (inactive)
GI50 (RPMI-8226): > 100 µM (inactive)
GI50 (U-251): > 100 µM (inactive)
GI50 (A549): > 100 µM (inactive)
GI50 (DMS-273): > 100 µM (inactive)
GI50 (786-0): > 100 µM (inactive)
GI50 (UACC-62): > 100 µM (inactive)
GI50 (KM-20L2): > 100 µM (inactive)
GI50 (HCT-15): > 100 µM
GI50 (TK-10): > 100 µM (inactive)
GI50 (SK-MEL-28): > 100 µM (inactive)
GI50 (SF-295): > 100 µM (inactive)
GI50 (SNB-78): > 100 µM (inactive)
GI50 (NCI-H226): > 100 µM (inactive)
GI50 (HCT-116): > 100 µM (inactive)
GI50 (HOP-62): > 100 µM (inactive)
GI50 (SK-MEL-2): > 100 µM (inactive)
GI50 (HCC 2998): > 100 µM (inactive)
GI50 (NCI-H522): > 100 µM (inactive)
GI50 (M14): > 100 µM (inactive)
GI50 (LOX IMVI): > 100 µM (inactive)
GI50 (LXFL 529): > 100 µM (inactive)
GI50 (M19-MEL): > 100 µM (inactive)
GI50 (XF498): > 100 µM (inactive)
GI50 (K562): > 100 µM (inactive)
GI50 (SN12C): > 100 µM (inactive)
GI50 (EKVX): > 100 µM (inactive)

CC1C[C@]2(C[C@@H](C)C(=O)O2)O[C@@H]2CC3(C)[C@@H]4CCC5C(C)(C)OC(=O)C[C@H]6OO[C@]4(CC[C@]3(C)C12)CC56O (stereo not given in full)
GI50 (SW-620): > 100 µM (inactive)
GI50 (DMS-114): > 100 µM (inactive)
GI50 (DLD-1): > 100 µM (inactive)
GI50 (RXF 393): > 100 µM (inactive)
GI50 (SK-MEL-5): > 100 µM (inactive)
GI50 (SNB-19): > 100 µM (inactive)
GI50 (OVCAR-5): > 100 µM (inactive)
GI50 (OVCAR-3): > 100 µM (inactive)
GI50 (OVCAR-4): > 100 µM (inactive)
GI50 (NCI-H460): > 100 µM (inactive)
GI50 (SR): > 100 µM (inactive)
GI50 (HOP-18): > 100 µM (inactive)
GI50 (UACC-257): > 100 µM (inactive)
GI50 (HL-60): > 100 µM (inactive)
GI50 (NCI-H23): > 100 µM (inactive)
GI50 (ACHN): > 100 µM (inactive)
GI50 (HT-29): > 100 µM (inactive)
GI50 (Malme-3M): > 100 µM (inactive)
GI50 (SNB-75): > 100 µM (inactive)
GI50 (SK-OV-3): > 100 µM (inactive)
GI50 (OVCAR-8): > 100 µM (inactive)
GI50 (IGROV-1): > 100 µM (inactive)
GI50 (SF-539): > 100 µM (inactive)
GI50 (UO-31): > 100 µM (inactive)
GI50 (RPMI-8226): > 100 µM (inactive)
GI50 (U-251): > 100 µM (inactive)
GI50 (A549): > 100 µM (inactive)
GI50 (DMS-273): > 100 µM (inactive)
GI50 (786-0): > 100 µM (inactive)
GI50 (UACC-62): > 100 µM (inactive)
GI50 (HCT-15): > 100 µM
GI50 (TK-10): > 100 µM (inactive)
GI50 (SK-MEL-28): > 100 µM (inactive)
GI50 (SF-295): > 100 µM (inactive)
GI50 (SNB-78): > 100 µM (inactive)
GI50 (NCI-H226): > 100 µM (inactive)
GI50 (SK-MEL-2): > 100 µM (inactive)
GI50 (HCC 2998): > 100 µM (inactive)
GI50 (NCI-H522): > 100 µM (inactive)
GI50 (M14): > 100 µM (inactive)
GI50 (LOX IMVI): > 100 µM (inactive)
GI50 (LXFL 529): > 100 µM (inactive)
GI50 (XF498): > 100 µM (inactive)
GI50 (SN12C): > 100 µM (inactive)
